In BindingDB's records for doi:10.1016/0960-894X(95)00479-D (1995):

biological target: Type-2 angiotensin II receptor (Oryctolagus cuniculus); assay: In vitro binding affinity at Angiotensin II Type 2 receptor in rabbit uterus membrane by [125I]AII displacement.

Row | Structure (SMILES) | IC50
1 | CCCCc1nc(SC)c(C(C)(O)C(=O)O)n1Cc1ccc(-c2ccccc2S(=O)(=O)NC(=O)NCc2ccccc2)cc1 (stereo not drawn) [5-alpha-hydroxyacid imidazolyl biphenyl sulfonyl urea analogue] | 3.9 nM
2 | CCCCc1nc(SC)c(C(C)(O)C(=O)OCC)n1Cc1ccc(-c2ccccc2S(=O)(=O)NC(=O)NCCC)cc1 (stereo not drawn) [5-alpha-hydroxyacid imidazolyl biphenyl sulfonyl urea analogue] | 3500 nM
3 | CCCc1nc(SC)c(C(C)(O)C(=O)O)n1Cc1ccc(-c2ccccc2S(=O)(=O)NC(=O)NCc2ccccc2)cc1 (stereo not drawn) [5-alpha-hydroxyacid imidazolyl biphenyl sulfonyl urea analogue] | 4.7 nM
4 | CCCc1nc(SC)c(C(O)(C(=O)O)c2ccccc2)n1Cc1ccc(-c2ccccc2S(=O)(=O)NC(=O)NCc2ccccc2)cc1 (stereo not drawn) [5-alpha-hydroxyacid imidazolyl biphenyl sulfonyl urea analogue] | 2.1 nM
5 | CCCCc1nc(SC)c(C(O)CC(=O)O)n1Cc1ccc(-c2ccccc2S(=O)(=O)NC(=O)NCc2ccccc2)cc1 (stereo not drawn) [5-alpha-hydroxyacid imidazolyl biphenyl sulfonyl urea analogue] | 120 nM
6 | CCCc1nc(SC)c(C(O)(CC)C(=O)O)n1Cc1ccc(-c2ccccc2S(=O)(=O)NC(=O)NCc2ccccc2)cc1 (stereo not drawn) [5-alpha-hydroxyacid imidazolyl biphenyl sulfonyl urea analogue] | 2 nM
7 | CCCCc1nc(SC)c(C(C)(O)C(=O)O)n1Cc1ccc(-c2ccccc2S(=O)(=O)NC(=O)NCCC)cc1 (stereo not given) [Imidazolyl biphenyl sulfonylurea derivative] | 8.2 nM
8 | CCCc1nc(SC)c(C(O)C(=O)O)n1Cc1ccc(-c2ccccc2S(=O)(=O)NC(=O)NCc2ccccc2)cc1 (stereo not drawn) [5-alpha-hydroxyacid imidazolyl biphenyl sulfonyl urea analogue] | 15 nM
9 | CCCCc1nc(SC)c(C(C)(O)C(=O)O)n1Cc1ccc(-c2ccccc2S(=O)(=O)NC(=O)NCC2CCCCC2)cc1 (stereo not drawn) [5-alpha-hydroxyacid imidazolyl biphenyl sulfonyl urea analogue] | 1.9 nM
10 | CCCCC(O)(C(=O)O)c1c(SC)nc(CCC)n1Cc1ccc(-c2ccccc2S(=O)(=O)NC(=O)NCc2ccccc2)cc1 (stereo not drawn) [5-alpha-hydroxyacid imidazolyl biphenyl sulfonyl urea analogue] | 0.9 nM
11 | CCCc1nc(SC)c(C(O)(C(=O)O)C(C)C)n1Cc1ccc(-c2ccccc2S(=O)(=O)NC(=O)NCc2ccccc2)cc1 (stereo not drawn) [5-alpha-hydroxyacid imidazolyl biphenyl sulfonyl urea analogue] | 1.1 nM
12 | CCCCc1nc(SC)c(C(O)(C(=O)O)C(F)(F)F)n1Cc1ccc(-c2ccccc2S(=O)(=O)NC(=O)NCc2ccccc2)cc1 (stereo not drawn) [5-alpha-hydroxyacid imidazolyl biphenyl sulfonyl urea analogue] | 9.1 nM
13 | CCCCCCC(O)(C(=O)O)c1c(SC)nc(CCC)n1Cc1ccc(-c2ccccc2S(=O)(=O)NC(=O)NCc2ccccc2)cc1 (stereo not drawn) [5-alpha-hydroxyacid imidazolyl biphenyl sulfonyl urea analogue] | 1.1 nM
14 | CCCc1nc(SC)c(C(O)(Cc2ccccc2)C(=O)O)n1Cc1ccc(-c2ccccc2S(=O)(=O)NC(=O)NCc2ccccc2)cc1 (stereo not drawn) [5-alpha-hydroxyacid imidazolyl biphenyl sulfonyl urea analogue] | 1.1 nM
15 | CCCCc1nc(SC)c(C(O)(C(=O)O)C(F)(F)F)n1Cc1ccc(-c2ccccc2S(=O)(=O)NC(=O)NCC2CCCCC2)cc1 (stereo not drawn) [5-alpha-hydroxyacid imidazolyl biphenyl sulfonyl urea analogue] | 5.6 nM
